According to patent US20240049994A1, “ONE-TOUCH FINGERTIP SWEAT SENSOR AND PERSONALIZED DATA PROCESSING FOR RELIABLE PREDICTION OF BLOOD BIOMARKER CONCENTRATIONS” (THE REGENTS OF THE UNIVERSITY OF CALIFORNIA, priority 2021, published 2024):

Columns and labels:
[1] = system: tyrosinase enzyme; experiment: Selectivity of tyrosinase-modified L-Dopa sensor against C-Dopa; format: biochemical
From the text: L-Dopa detection is achieved through coupling the tyrosinase enzyme-catalyzed L-Dopa oxidation (catecholase activity) and the subsequent electrochemical reduction of the corresponding quinone product, dopaquinone, at low potentials (FIG. 6A). The formed reaction cycle not only enhances the sensitivity through amplification of the resulting current signal but also prevents electrode fouling by inhibiting the spontaneous polymerization reactions of the unstable quinone molecules. Tyrosinase enzyme is simply immobilized on the surface of screen-printed carbon electrodes, followed by crosslinking with glutaraldehyde to prevent leaching of the enzyme (FIG. 6A). To establish the optimal potential for the L-Dopaquinone reduction, the amperometric signals obtained at various potentials, ranging from −0.1 to −0.4 V (vs. internal pseudo-reference Ag/AgCl), are compared upon addition of 10 μM L-Dopa. […] Thus, optimal potential of −0.3 V is chosen and used for subsequent in-vitro and on-body experiments. […] The reproducibility of the L-Dopa sensor is evaluated by measuring 10 μM L-Dopa concentration on six different electrodes sensors.
The performance of the sensor toward following the L-Dopa pharmacokinetics is characterized on healthy patients following the administration of L-Dopa/C-Dopa (100:25 mg) pills which are common oral medication for PD patients. […]

[2] = Pharmacokinetic correlation of fingertip sweat and capillary blood L-Dopa profiles; format: in vivo, human; details: healthy subjects, after L-Dopa/C-Dopa pill, measured every 10 min
From the text: While the blood plasma is the ‘gold standard’ matrix for therapeutic monitoring of L-Dopa, this analysis method relies on LC-MS centralized instruments. To further confirm the reliability of the developed protocol based on touch-based sweat L-Dopa detection, the feasibility of data validation between sweat and blood samples is investigated. Two subjects performed fingertip sweat sensing in parallel to the electrochemical measurements of the finger pricked capillary blood samples, using the enzymatic L-Dopa sensor. As shown in FIG. 62 (A)-(B), the sweat sensor is able to probe and detect successfully L-Dopa fluctuations in microliter blood samples similar to the fingertip natural sweat sample. Similar temporal profiles are observed for blood and sweat experiments, with ˜10 min lag time. […] Additionally, control experiments are also carried out without pill intake (FIG. 62 (C)) and using non-enzymatic electrode (FIG. 62 (D)). In both control experiments, the current signal remained small and unchanged, which indicates the signal specificity of the fingertip touch-based sweat sensing procedure.

[3] = Touch-based fingertip sweat L-Dopa monitoring after L-Dopa/C-Dopa pill intake; format: in vivo, human; details: oral L-Dopa/C-Dopa (100:25 mg) pill
From the text: The disclosed technology can be implemented in some embodiments to provide an individualized therapeutic drug monitoring for PD patients, centered on dynamic non-invasive tracking pharmacokinetic profiles of L-Dopa levels in the secreted sweat upon intake of standard pill formulations. Sweat is a non-invasively retrievable biofluid containing rich information of trace-level, health-related biochemical markers. Wearable sweat sensors have shown enormous potential toward monitoring of physiological heath status (e.g., hydration), disease diagnosis and management (e.g., diabetes and gout), and therapeutic drug monitoring (e.g., pain management). However, the presence of skin as a mechanical barrier prevents an uninterrupted access to this information-rich biofluid, and thus a triggering system (i.e., physical exercise, thermal stimulation, oriontophoresis) is necessary to provide continuous access to sweat sample. […] Taking advantage of the high density of eccrine sweat glands (˜400 glands cm^2) and the consequent generation of high sweat rates, finger touch-based biosensors have recently been reported for the detection of key sweat biomarkers (e.g., glucose, vitamin C, and cortisol). Leveraging such natural thermoregulatory sweat sample, a finger-touch L-Dopa biosensor based on some embodiments of the disclosed technology can continuously monitor the dynamic profile of sweat L-Dopa upon intake of standard anti-Parkinsonian medication including L-Dopa-carbidopa (100:25 mg) (FIG. 5A(a)). […]
To gain further insight into the personalized body responses upon medication intake, the performance of the finger touch biosensor is evaluated on three different individuals while taking the same medication under identically kept conditions (FIG. 7 (a)-(c)). […]

current relative to L-Dopa ([1]; a quarter of the L-Dopa concentration (4:1 ratio as in the pill)) | overall response relative to L-Dopa ([1]; same concentration as L-Dopa, amperometry at -0.3 V) | lag time between sweat and capillary blood L-Dopa temporal profiles [2] | time at which L-Dopa current signal starts to increase after pill intake ([3]; healthy subject) | time at which sweat L-Dopa signal decreases back to background level after pill intake ([3]; healthy subject) | time of peak maximum of sweat L-Dopa signal after pill intake ([3]; healthy subjects, measured every 10 min) | SMILES
~6% | ~20% | – | – | – | – | C[C@@](Cc1ccc(O)c(O)c1)(NN)C(=O)O [C-Dopa, carbidopa]
– | – | ~10 min | 10 min | one hour | 30 min | N[C@@H](Cc1ccc(O)c(O)c1)C(=O)O [L-Dopa, Levodopa]
